Measurements reported in US20220117958A1, “COMPOSITIONS AND METHODS FOR INHIBITING ACSS2” (THE TRUSTEES OF THE UNIVERSITY OF PENNSYLVANIA, priority 2018, published 2022).
≈ marks a conversion by molar mass, not a printed value. Where “and” joins values, the source holds several entries; their conditions need not be identical. Equal values may be shown once. Read-outs that look alike come from different tables or passages of the source. Marks after values point to notes of the source that are not given here.

Columns and labels:
[1] = Microsomal stability assay (half-life), mouse; format: in vitro ADME; settings: Mouse (CD1) microsomes, read-out: Microsomal stability T1/2
Excerpt: (§1) Table 20 provides results of in vitro and in vivo pharmacokinetics performed for each of the represented compounds.

[2] = In vivo PK, IV dose, Terminal - brain (brain availability); design: species or system Rat (SD); settings: for Brain concentration, mean / Brain concentration, individual animal: IV 1 mg/kg; for Brain concentration, individual animal: Rat
Procedure: Table 3 and FIG. 5 depict the brain availability of ADG I-204, ADG I-205, ADG I-206, and ADG I-207 after IV administration of 1 mg/kg dose.

[3] = Turbidity-based aqueous solubility; format: physicochemical; settings: aqueous solution (composition not given), kinetic from dmso stock, read-out: highest soluble concentration
Excerpt: as §1

[4] = Microsomal stability assay (half-life), human; format: in vitro ADME; settings: Human microsomes, read-out: Microsomal stability T1/2
Excerpt: as §1

[5] = Protein binding via Rapid Equilibrium Dialysis - plasma; format: in vitro ADME; settings: Rat (SD) plasma, 2 μM
Excerpt: as §1

[6] = Microsomal stability assay (half-life), rat; format: in vitro ADME; settings: Rat (SD) microsomes, read-out: Microsomal stability T1/2
Excerpt: as §1

[7] = In vivo PK, oral gavage, plasma; design: species or system Rat (SD); settings: PO 5 mg/kg; for Plasma concentration, mean: Rat (SD), BQL = below quantitation limit (1.00 ng/mL); for Plasma concentration, individual animal: Rat, BQL limit 1.00 ng/mL
Excerpt: as §1
(§2) Tables 4 and 5 depict the summary of rat plasma sample concentrations after administration of ADG I-204. FIG. 6 provides a summary of rat plasma and brain concentrations.

H3K9ac = assay: Western blot, differentiated CAD cell lysates, H3K9ac levels; format: cell-based; settings: differentiated CAD cells, DMSO = 100.00%
Excerpt: as §1

[8] = In vivo PK, IV dose, plasma; design: species or system Rat (SD); settings: for Plasma concentration, mean / Plasma concentration, individual animal: IV 1 mg/kg, listed as ADG I-204, 1 mg/kg
Excerpt: as §1, §2

SMILES: CCCCCNC(=O)Nc1ccc2nc(-c3cccs3)c(-c3cccs3)nc2c1 [ADG-204]
- half-life at 2 μM [1]: 5.02 h
- Brain concentration, mean ([2]; Rat (SD), 4 hr, BQL limit 10.0 ng/g (204, 206), 20.0 ng/g (205, 207)): BQL
- Brain concentration, mean ([2]; Rat (SD), 8 hr, BQL limit 10.0 ng/g (204, 206), 20.0 ng/g (205, 207)): BQL
- Brain concentration, mean ([2]; Rat (SD), 24 hr, BQL limit 10.0 ng/g (204, 206), 20.0 ng/g (205, 207)): BQL
- Brain concentration, individual animal ([2]; 0.0830 hr, third animal received only 70% of the test article, listed as ADG I-204, 1 mg/kg): 637 ng/g and 583 ng/g and 242*** ng/g
- Brain concentration, individual animal ([2]; 1.00 hr, listed as ADG I-204, 1 mg/kg): 119 ng/g and 60.3 ng/g and 149 ng/g
- Brain concentration, individual animal ([2]; 4.00 hr, BQL limit 10.0 ng/g (204, 206), 20.0 ng/g (205, 207)): BQL
- Brain concentration, individual animal ([2]; 8.00 hr, BQL limit 10.0 ng/g (204, 206), 20.0 ng/g (205, 207)): BQL
- Brain concentration, individual animal ([2]; 24.0 hr, BQL limit 10.0 ng/g (204, 206), 20.0 ng/g (205, 207)): BQL
- concentration at 0.083 h ([2]; SD, rat, brain, iv, 1 mg/kg, Rat (SD), 0.083 hr): 487 ng/g
- concentration at 1 h ([2]; SD, rat, brain, iv, 1 mg/kg, Rat (SD), 1 hr, read-out: Brain concentration, mean): 109 ng/g
- solubility [3]: 2 µM (≈ 0.845 µg/mL)
- half-life at 2 μM [4]: 1.16 h
- Protein binding, plasma: % Protein free [5]: 0.1994 % Protein free
- half-life at 2 μM [6]: 3.92 h
- Plasma concentration, mean ([7]; 0.25 hr): BQL
- Plasma concentration, mean ([7]; 0.5 hr): BQL
- Plasma concentration, mean ([7]; 1 hr): BQL
- Plasma concentration, mean ([7]; 4 hr): BQL
- Plasma concentration, mean ([7]; 8 hr): BQL
- Plasma concentration, mean ([7]; 24 hr): BQL
- Plasma concentration, individual animal ([7]; 0.250 hr): BQL
- Plasma concentration, individual animal ([7]; 0.500 hr): BQL
- Plasma concentration, individual animal ([7]; 1.00 hr): BQL
- Plasma concentration, individual animal ([7]; 4.00 hr): BQL
- Plasma concentration, individual animal ([7]; 8.00 hr): BQL
- Plasma concentration, individual animal ([7]; 24.0 hr): BQL
- H3K9ac levels normalized to H3 and DMSO control (H3K9ac; 1 uM): 22.30%
- H3K9ac levels normalized to H3 and DMSO control (H3K9ac; 5 uM): 13.48%
- H3K9ac levels normalized to H3 and DMSO control (H3K9ac; 10 uM): 8.32%
- H3K9ac levels normalized to H3 and DMSO control (H3K9ac; 20 uM): 17.03%
- H3K9ac levels normalized to H3 and DMSO control (H3K9ac; 50 uM): 9.64%
- H3K9ac levels normalized to H3 and DMSO control (H3K9ac; 100 uM): 24.00%
- Plasma concentration, mean ([8]; Rat (SD), 4 hr, terminal): 4 ng/mL
- Plasma concentration, mean ([8]; Rat (SD), 8 hr, terminal): 4 ng/mL
- Plasma concentration, mean ([8]; Rat (SD), 24 hr, terminal, BQL limit 1.00 ng/mL (ADG I-205: 2.00 ng/mL)): 2 ng/mL
- Plasma concentration, individual animal ([8]; Rat, 0.0830 hr, terminal, third animal received only 70% of the test article): 2340 ng/mL and 1170*** ng/mL
- Plasma concentration, individual animal ([8]; Rat, 0.500 hr, not terminal (animals 4, 5 and 6)): 4190** ng/mL and 357 ng/mL and 634 ng/mL
- Plasma concentration, individual animal ([8]; Rat, 1.00 hr, terminal): 278 ng/mL and 103 ng/mL and 279 ng/mL
- Plasma concentration, individual animal ([8]; Rat, 4.00 hr, terminal, BQL limit 1.00 ng/mL (ADG I-205: 2.00 ng/mL)): 4.35 ng/mL
- Plasma concentration, individual animal ([8]; Rat, 8.00 hr, terminal, BQL limit 1.00 ng/mL (ADG I-205: 2.00 ng/mL)): 2.97 ng/mL and 5.93 ng/mL
- Plasma concentration, individual animal ([8]; Rat, 24.0 hr, terminal, BQL limit 1.00 ng/mL (ADG I-205: 2.00 ng/mL)): 1.09 ng/mL and BQL
- concentration at 0.083 h ([8]; SD, rat, plasma, iv, 1 mg/kg, Rat (SD), 0.083 hr, terminal, read-out: Plasma concentration, mean): 1910 ng/mL
- concentration at 0.5 h ([8]; SD, rat, plasma, iv, 1 mg/kg, Rat (SD), 0.500 hr, not a terminal time point (animals 4, 5 and 6)): 1730 ng/mL
- concentration at 1 h ([8]; SD, rat, plasma, iv, 1 mg/kg, Rat (SD), 1 hr, terminal, read-out: Plasma concentration, mean): 220 ng/mL
- concentration at 4 h ([8]; SD, rat, plasma, iv, 1 mg/kg, Rat (SD), 4 hr, terminal, read-out: Plasma concentration, mean): 4.49 ng/mL
- concentration at 8 h ([8]; SD, rat, plasma, iv, 1 mg/kg, Rat (SD), 8 hr, terminal, read-out: Plasma concentration, mean): 4.27 ng/mL
- concentration at 24 h ([8]; SD, rat, plasma, iv, 1 mg/kg, Rat (SD), 24 hr, terminal, BQL limit 1.00 ng/mL (ADG I-205: 2.00 ng/mL), read-out: Plasma concentration, mean): 1.52 ng/mL
- concentration at 0.083 h ([8]; SD, rat, plasma, iv, 1 mg/kg, Rat, 0.0830 hr, terminal, third animal received only 70% of the test article, read-out: Plasma concentration, individual animal): 2220 ng/mL
- concentration at 4 h ([8]; SD, rat, plasma, iv, 1 mg/kg, Rat, 4.00 hr, terminal, BQL limit 1.00 ng/mL (ADG I-205: 2.00 ng/mL), read-out: Plasma concentration, individual animal): 8.63 ng/mL
- concentration at 8 h ([8]; SD, rat, plasma, iv, 1 mg/kg, Rat, 8.00 hr, terminal, BQL limit 1.00 ng/mL (ADG I-205: 2.00 ng/mL), read-out: Plasma concentration, individual animal): 3.92 ng/mL
- concentration at 24 h ([8]; SD, rat, plasma, iv, 1 mg/kg, Rat, 24.0 hr, terminal, BQL limit 1.00 ng/mL (ADG I-205: 2.00 ng/mL), read-out: Plasma concentration, individual animal): 1.95 ng/mL
